US8415469B2, “Compounds and methods for kinase modulation, and indications therefor” (Plexxikon Inc., priority 2005, dated 2013)

Key:
Format in all cases: biochemical
Abl = molecular target: T1, Abl (Homo sapiens, UniProt P00519); test: AlphaScreen kinase assay, Abl; details: read-out: activity toward kinase Abl, IC50
T1 construct: P1121. pET-SPEC BI-PTP Abl G227-V515-X; His6 (N); made in house; host or cells: E. coli (PTP1B co-expressed)
T1 sequence (P00519 with tags, fused parts or gaps): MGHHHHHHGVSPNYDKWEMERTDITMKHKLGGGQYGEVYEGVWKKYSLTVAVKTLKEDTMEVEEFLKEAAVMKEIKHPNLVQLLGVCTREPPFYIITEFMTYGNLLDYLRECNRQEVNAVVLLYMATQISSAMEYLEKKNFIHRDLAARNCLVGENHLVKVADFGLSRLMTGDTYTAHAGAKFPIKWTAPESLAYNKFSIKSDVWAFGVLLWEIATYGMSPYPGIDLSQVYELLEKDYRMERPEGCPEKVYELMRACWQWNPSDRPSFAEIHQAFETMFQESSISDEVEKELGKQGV
How it was run: (§1)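 Uses phospho-specific antibody on acceptor beads plus streptavidin donor beads capturing biotinylated peptide substrate; singlet oxygen from donor excites nearby acceptor. Inhibitors tested in 8-point, 1:3 titrations starting from 20 mM DMSO solutions.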

B-Raf = molecular target: T2, B-Raf (Homo sapiens, UniProt P15056); test: AlphaScreen kinase assay, B-Raf; details: read-out: IC50, activity toward kinase B-Raf
T2 construct: purchased Upstate Biotechnology

B-Raf V600E = molecular target: T3, B-Raf V600E (Homo sapiens, UniProt P15056, V600E); test: AlphaScreen kinase assay, B-Raf V600E; details: read-out: IC50, activity toward kinase B-Raf V600E
T3 construct: P4254. pFastBacBD-CDC37 BRAF D437-K722-X, V600E; His6 with pFastBac HT leader (TEV site) (N); made in house; host or cells: Sf9 (baculovirus; chaperone CDC37 co-expressed)

Erk2 = molecular target: T4, Erk2 (Homo sapiens, UniProt P28482); test: AlphaScreen kinase assay, Erk2; details: read-out: IC50, activity toward kinase Erk2
T4 construct: P4227.pET15S ERK2/MEK1DD; His6 with thrombin site (N); made in house
Description: AlphaScreen assay was used to screen additional kinases. The assay is similarly dependent on the phosphorylation of a peptide substrate. In this assay, an antibody that recognizes phosphorylated substrate is bound to an acceptor bead. The peptide substrate is attached to biotin, which binds to a donor head that contains streptavidin. Thus phosphorylated substrate is bound by antibody and streptavidin, bringing the donor and acceptor heads into close proximity when kinase is not inhibited. The donor produces singlet oxygen which results in emission from the acceptor when they are in close proximity. Conversely, when kinase is inhibited, the donor and acceptor beads are not associated and the emission from the acceptor is reduced.
AlphaScreen assays were done using compounds dissolved in DMSO to a concentration of 20 mM. The compounds were diluted accordingly to the desired final concentrations in each sample well, using 1:3 serial dilution for a total of 8 concentration points.

FGFR1 = molecular target: T5, FGFR1 (Homo sapiens, UniProt P11362, C488A/C584S); test: AlphaScreen kinase assay, FGFR1; details: read-out: IC50, activity toward kinase FGFR
T5 construct: P1351.pET N6 BI-PTP FGFR A458-E765-X C488A, C584S; made in house; host or cells: E. coli (PTP1B co-expressed)

Flt1 = molecular target: T6, Flt1 (Homo sapiens, UniProt P17948); test: AlphaScreen kinase assay, Flt1; details: read-out: IC50, activity toward kinase Flt1
T6 construct: P1826.pETN6 BI-PTP FLT1 M799-D1165-X WT; His6 (N); made in house; host or cells: E. coli (PTP1B co-expressed)
T6 sequence (P17948 with tags, fused parts or gaps): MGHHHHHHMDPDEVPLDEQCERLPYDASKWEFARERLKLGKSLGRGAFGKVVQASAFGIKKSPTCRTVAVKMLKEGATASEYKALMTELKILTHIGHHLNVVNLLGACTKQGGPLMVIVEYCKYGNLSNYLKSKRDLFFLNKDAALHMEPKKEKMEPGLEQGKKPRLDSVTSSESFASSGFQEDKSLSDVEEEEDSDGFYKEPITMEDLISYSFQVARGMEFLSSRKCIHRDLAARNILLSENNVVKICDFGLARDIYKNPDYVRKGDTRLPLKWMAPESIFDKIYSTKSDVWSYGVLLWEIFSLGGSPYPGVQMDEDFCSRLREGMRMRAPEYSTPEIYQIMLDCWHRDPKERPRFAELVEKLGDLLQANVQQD

Flt4 = molecular target: T7, Flt4 (Homo sapiens, UniProt P35916); test: AlphaScreen kinase assay, Flt4; details: read-out: IC50, activity toward kinase Flt4
T7 construct: purchased ProQinase GmbH (Freiburg, Germany)
How it was run: as §1

Jnk3 = molecular target: T8, Jnk3 (Homo sapiens, UniProt P53779); test: AlphaScreen kinase assay, Jnk3; details: read-out: IC50, activity toward kinase Jnk3
T8 construct: purchased Upstate Biotechnology

Kdr = molecular target: T9, Kdr (Homo sapiens, UniProt P35968); test: Z'-Lyte FRET kinase assay (Invitrogen), Kdr; details: read-out: IC50, activity toward kinase Kdr
T9 construct: purchased Invitrogen (assay run by Invitrogen)

Kit = molecular target: T10, Kit (Homo sapiens, UniProt P10721); test: AlphaScreen kinase assay, Kit; details: read-out: IC50, activity toward kinase Kit
T10 construct: P1332.N6 BI PTP KIT M552-K948-X COD; His6 (N); made in house; host or cells: E. coli (PTP1B co-expressed)

Met = molecular target: T11, Met (Homo sapiens, UniProt P08581); test: AlphaScreen kinase assay, Met; details: read-out: IC50, activity toward kinase Met
T11 construct: P1818.pETN6 BI-PTP MET G1056-G1364-X WT; His6 (N); made in house; host or cells: E. coli (PTP1B co-expressed)
How it was run: as §1

Pyk2 = molecular target: T12, Pyk2 (Homo sapiens, UniProt Q14289); test: AlphaScreen kinase assay, Pyk2; details: read-out: IC50, activity toward kinase Pyk2
T12 construct: purchased Upstate Biotechnology

Ret = molecular target: T13, Ret (Homo sapiens, UniProt P07949); test: AlphaScreen kinase assay, Ret; details: read-out: IC50, activity toward kinase Ret
T13 construct: P1378.pET-SF BI-PTP RET H661-R1012 HIS; made in house
T13 sequence (P07949 with tags, fused parts or gaps): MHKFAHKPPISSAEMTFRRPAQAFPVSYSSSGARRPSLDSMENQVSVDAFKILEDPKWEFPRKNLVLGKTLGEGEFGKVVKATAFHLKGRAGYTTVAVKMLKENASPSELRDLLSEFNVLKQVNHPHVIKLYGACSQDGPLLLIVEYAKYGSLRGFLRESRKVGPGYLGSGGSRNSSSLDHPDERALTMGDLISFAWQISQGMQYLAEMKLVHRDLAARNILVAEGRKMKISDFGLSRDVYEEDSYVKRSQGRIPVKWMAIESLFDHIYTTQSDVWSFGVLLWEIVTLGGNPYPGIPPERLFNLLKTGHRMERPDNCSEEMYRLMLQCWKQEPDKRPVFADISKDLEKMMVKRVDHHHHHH

Src = molecular target: T14, Src (Homo sapiens, UniProt P12931); test: AlphaScreen kinase assay, Src; details: read-out: IC50, activity toward kinase Src
T14 construct: P1144. pET-N6 BI-PTP SRC V86-L536-X; made in house

Zap70 = molecular target: T15, Zap70 (Homo sapiens, UniProt P43403); test: AlphaScreen kinase assay, Zap70; details: read-out: IC50, activity toward kinase Zap70
T15 construct: P1868.pFastBac1 ZAP70 D327-G606 HIS, WT; His7 (HHHHHHH) (C); made in house
T15 sequence (P43403 with tags, fused parts or gaps): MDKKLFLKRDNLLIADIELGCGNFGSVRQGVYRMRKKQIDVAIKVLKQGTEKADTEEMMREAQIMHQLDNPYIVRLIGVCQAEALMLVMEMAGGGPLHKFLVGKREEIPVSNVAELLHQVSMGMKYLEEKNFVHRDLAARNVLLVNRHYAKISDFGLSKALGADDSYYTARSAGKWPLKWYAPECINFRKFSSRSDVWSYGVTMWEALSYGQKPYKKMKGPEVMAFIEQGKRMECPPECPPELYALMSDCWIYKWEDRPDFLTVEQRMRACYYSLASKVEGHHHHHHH
How it was run: as §1

Stk6 = molecular target: T16, Stk6 (Homo sapiens, UniProt O14965); test: Z'-Lyte FRET kinase assay (Invitrogen), Stk6; details: read-out: IC50, activity toward kinase Stk6
T16 construct: purchased Invitrogen (Carlsbad, Calif.), screening service
T16 sequence (O14965 1-403): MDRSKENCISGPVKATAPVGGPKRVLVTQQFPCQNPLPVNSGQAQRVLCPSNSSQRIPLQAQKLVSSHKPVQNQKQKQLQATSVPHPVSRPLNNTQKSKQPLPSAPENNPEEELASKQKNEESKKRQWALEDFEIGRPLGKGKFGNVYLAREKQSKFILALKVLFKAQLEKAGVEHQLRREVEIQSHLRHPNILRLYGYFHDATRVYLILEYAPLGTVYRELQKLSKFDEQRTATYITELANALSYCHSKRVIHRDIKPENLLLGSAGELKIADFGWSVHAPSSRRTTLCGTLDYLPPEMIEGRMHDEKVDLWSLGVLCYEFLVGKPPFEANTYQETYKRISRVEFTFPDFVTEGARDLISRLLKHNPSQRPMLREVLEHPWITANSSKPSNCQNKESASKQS

Akt3 = Akt3 (Homo sapiens, UniProt Q9Y243); test: AlphaScreen kinase assay, Akt3; details: read-out: IC50, activity toward kinase Akt3
How it was run: as §1

Gsk3β = Gsk3β (Homo sapiens, UniProt P49841); test: AlphaScreen kinase assay, Gsk3β; details: read-out: IC50, activity toward kinase Gsk3β
How it was run: as §1

IGF1R = IGF1R (Homo sapiens, UniProt P08069); test: AlphaScreen kinase assay, IGF1R; details: read-out: IC50, activity toward kinase IGF1R
Plk1 = Plk1 (Homo sapiens, UniProt P53350); test: AlphaScreen kinase assay, Plk1; details: read-out: IC50, activity toward kinase Plk1
How it was run: as §1

T4 sequence (P28482 with tags, fused parts or gaps): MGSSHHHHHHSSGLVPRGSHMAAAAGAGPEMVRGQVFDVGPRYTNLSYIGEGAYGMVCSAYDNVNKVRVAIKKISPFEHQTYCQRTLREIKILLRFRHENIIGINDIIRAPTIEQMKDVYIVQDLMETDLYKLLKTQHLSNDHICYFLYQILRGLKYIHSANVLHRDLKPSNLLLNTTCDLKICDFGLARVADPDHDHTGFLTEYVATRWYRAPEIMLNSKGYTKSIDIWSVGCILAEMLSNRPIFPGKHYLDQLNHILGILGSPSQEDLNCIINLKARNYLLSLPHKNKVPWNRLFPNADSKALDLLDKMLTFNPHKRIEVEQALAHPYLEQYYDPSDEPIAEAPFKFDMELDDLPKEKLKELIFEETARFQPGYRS
T10 sequence (P10721 with tags, fused parts or gaps): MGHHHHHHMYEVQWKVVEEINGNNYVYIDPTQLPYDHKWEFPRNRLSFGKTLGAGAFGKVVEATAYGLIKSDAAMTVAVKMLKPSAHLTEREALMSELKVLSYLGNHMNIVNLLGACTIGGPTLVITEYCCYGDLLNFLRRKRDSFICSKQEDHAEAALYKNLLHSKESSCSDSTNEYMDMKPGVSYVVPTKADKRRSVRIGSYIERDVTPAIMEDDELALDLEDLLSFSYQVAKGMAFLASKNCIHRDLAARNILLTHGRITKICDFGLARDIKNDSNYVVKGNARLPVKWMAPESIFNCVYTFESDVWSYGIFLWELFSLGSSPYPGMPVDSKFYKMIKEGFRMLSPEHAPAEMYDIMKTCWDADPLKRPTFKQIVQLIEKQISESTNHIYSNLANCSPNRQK
T11 sequence (P08581 with tags, fused parts or gaps): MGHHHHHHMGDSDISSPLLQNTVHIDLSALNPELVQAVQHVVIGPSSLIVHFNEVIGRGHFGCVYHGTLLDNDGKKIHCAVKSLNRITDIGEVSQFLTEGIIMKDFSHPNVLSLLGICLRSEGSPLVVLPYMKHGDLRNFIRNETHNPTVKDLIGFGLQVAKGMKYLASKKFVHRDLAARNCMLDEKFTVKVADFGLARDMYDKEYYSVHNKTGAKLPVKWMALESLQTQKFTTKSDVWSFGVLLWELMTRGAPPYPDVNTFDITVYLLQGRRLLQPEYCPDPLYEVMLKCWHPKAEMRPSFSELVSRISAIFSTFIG
T5 sequence (P11362 458-765 C488A/C584S): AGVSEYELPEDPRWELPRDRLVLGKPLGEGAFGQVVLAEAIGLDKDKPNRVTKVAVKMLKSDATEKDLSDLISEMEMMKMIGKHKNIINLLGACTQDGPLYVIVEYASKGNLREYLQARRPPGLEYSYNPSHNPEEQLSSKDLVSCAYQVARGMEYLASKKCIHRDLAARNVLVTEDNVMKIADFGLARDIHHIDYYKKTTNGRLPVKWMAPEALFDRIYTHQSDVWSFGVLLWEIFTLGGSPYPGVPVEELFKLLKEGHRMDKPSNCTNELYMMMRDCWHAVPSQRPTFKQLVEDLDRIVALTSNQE
T2 sequence (P15056 whole entry): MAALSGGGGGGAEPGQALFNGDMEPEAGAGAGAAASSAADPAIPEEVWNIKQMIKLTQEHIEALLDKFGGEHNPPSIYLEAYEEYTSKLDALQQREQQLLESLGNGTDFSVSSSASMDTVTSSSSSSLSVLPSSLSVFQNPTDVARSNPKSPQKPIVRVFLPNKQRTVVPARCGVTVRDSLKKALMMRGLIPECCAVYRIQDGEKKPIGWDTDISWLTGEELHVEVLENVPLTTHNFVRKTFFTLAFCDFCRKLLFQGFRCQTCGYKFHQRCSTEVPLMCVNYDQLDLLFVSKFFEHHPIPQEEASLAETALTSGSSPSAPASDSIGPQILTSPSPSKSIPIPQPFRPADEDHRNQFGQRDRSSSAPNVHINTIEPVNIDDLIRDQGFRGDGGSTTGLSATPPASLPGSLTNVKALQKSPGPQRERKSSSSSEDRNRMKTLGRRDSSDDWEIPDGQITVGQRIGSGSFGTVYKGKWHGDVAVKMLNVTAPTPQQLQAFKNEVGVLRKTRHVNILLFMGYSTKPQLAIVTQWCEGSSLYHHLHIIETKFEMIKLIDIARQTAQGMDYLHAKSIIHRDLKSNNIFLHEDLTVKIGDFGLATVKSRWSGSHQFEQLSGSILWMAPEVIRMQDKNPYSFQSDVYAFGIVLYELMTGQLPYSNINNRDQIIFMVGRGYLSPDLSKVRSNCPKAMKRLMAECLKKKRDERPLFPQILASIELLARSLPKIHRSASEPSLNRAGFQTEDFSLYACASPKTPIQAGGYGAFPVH
T3 sequence (P15056 with tags, fused parts or gaps V600E): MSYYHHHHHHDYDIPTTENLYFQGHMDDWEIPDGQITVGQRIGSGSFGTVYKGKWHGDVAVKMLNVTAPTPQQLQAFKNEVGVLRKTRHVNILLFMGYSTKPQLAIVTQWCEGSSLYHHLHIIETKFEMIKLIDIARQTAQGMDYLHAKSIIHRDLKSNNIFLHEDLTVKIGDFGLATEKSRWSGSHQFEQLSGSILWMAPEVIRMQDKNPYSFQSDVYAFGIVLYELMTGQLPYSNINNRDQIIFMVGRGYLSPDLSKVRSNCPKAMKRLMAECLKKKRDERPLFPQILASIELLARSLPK
T14 sequence (P12931 with tags, fused parts or gaps): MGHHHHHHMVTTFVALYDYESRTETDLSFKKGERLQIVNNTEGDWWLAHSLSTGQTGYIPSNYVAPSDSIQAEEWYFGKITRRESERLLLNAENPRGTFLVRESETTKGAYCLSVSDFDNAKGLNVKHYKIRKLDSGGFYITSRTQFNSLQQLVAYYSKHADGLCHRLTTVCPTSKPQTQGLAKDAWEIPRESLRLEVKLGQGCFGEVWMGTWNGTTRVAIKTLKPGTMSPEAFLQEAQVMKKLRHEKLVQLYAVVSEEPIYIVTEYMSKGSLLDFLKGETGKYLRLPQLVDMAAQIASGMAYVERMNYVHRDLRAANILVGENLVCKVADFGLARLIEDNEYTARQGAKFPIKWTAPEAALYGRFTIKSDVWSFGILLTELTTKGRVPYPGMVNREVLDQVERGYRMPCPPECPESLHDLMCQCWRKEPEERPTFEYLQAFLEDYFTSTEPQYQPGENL
Sequence of Gsk3β (P49841 whole entry): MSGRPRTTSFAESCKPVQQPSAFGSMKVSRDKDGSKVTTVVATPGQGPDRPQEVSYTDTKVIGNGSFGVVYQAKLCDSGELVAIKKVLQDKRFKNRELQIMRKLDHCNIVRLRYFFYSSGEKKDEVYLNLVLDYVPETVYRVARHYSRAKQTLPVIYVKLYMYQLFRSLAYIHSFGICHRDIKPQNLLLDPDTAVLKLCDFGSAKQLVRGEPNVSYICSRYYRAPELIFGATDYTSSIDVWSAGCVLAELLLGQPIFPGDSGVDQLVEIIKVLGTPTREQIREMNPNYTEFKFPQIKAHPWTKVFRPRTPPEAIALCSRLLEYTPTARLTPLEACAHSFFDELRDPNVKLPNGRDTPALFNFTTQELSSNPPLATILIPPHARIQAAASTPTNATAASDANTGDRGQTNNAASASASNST
Sequence of IGF1R (P08069 31-1367): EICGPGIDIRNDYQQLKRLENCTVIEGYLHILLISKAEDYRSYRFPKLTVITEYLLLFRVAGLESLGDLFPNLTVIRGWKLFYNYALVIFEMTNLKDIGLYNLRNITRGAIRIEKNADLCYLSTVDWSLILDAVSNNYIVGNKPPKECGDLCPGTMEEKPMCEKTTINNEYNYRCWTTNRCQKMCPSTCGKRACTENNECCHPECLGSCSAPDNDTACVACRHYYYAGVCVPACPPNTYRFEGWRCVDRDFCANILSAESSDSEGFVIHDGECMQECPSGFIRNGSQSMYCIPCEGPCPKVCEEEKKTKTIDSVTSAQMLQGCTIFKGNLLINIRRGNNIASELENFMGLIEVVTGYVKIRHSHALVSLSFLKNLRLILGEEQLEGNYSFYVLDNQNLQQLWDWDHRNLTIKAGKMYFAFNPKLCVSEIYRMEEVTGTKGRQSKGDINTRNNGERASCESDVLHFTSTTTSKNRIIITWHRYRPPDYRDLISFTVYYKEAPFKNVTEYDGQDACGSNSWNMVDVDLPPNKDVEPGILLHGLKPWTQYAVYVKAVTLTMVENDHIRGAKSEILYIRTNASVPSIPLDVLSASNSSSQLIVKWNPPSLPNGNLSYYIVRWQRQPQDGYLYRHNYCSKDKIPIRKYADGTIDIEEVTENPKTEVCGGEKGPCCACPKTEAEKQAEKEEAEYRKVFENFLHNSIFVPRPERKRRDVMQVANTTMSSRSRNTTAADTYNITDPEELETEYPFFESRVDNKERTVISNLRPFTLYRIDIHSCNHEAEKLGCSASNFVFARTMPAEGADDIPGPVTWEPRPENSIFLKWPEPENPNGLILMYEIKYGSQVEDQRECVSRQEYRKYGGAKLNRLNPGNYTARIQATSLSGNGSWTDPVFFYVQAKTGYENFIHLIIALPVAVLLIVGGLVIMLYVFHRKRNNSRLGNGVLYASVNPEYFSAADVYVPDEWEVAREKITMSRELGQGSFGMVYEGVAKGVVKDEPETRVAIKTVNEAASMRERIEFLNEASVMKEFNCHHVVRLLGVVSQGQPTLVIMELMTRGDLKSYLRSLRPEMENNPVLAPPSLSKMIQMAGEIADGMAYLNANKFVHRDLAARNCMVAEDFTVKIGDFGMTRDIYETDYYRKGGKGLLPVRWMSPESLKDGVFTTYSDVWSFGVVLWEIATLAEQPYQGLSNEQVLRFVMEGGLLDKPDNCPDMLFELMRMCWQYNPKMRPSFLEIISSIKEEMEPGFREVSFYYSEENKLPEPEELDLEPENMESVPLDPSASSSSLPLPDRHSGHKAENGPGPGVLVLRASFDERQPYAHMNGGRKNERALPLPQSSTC

Row | IC50 (Abl) [µM] | IC50 (B-Raf) [µM] | IC50 (B-Raf V600E) [µM] | IC50 (Erk2) [µM] | IC50 (FGFR1) [µM] | IC50 (Flt1) [µM] | IC50 (Flt4) [µM] | IC50 (Jnk3) [µM] | IC50 (Kdr) [µM] | IC50 (Kit) [µM] | IC50 (Met) [µM] | IC50 (Pyk2) [µM] | IC50 (Ret) [µM] | IC50 (Src) [µM] | IC50 (Zap70) [µM] | IC50 (Stk6) [µM] | IC50 (Akt3) [µM] | IC50 (Gsk3β) [µM] | IC50 (IGF1R) [µM] | IC50 (Plk1) [µM] | Structure (SMILES)
1 | ≤ 10 | ≤ 10 | ≤ 10 | ≤ 10 | ≤ 10 | ≤ 10 | ≤ 10 | ≤ 10 | ≤ 10 | ≤ 10 | ≤ 10 | ≤ 10 | ≤ 10 | ≤ 10 | ≤ 10 |  |  |  |  |  | O=S(=O)(NCc1c[nH]c2ncccc12)c1cc(Cl)c(Cl)s1 [Compound P-0550]
2 |  |  |  | ≤ 10 |  | ≤ 10 |  |  |  | ≤ 10 |  |  |  |  |  | ≤ 10 | ≤ 10 | ≤ 10 | ≤ 10 | ≤ 10 | Cc1cccc(-c2ccnc3[nH]cc(CNS(=O)(=O)C(F)(F)F)c23)c1 [Compound P-0154]
